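Interpolation was linear, between the two tested concentrations surrounding the appropriate level; five concentrations were tested over 48 hours in 96-well plates. At the GI50, growth is halved.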 Calls of active or inactive are those of the source. No stated cut-off is given here; in the data, active = GI50 up to about 1.1 µM and inactive = higher.
How the values were obtained:
Experiment in all cases: DTP human tumour cell line panel, 48 h
786-0 = system: 786-0
A498 = system: A498
A549 = system: A549
ACHN = system: ACHN
CAKI-1 = system: CAKI-1
CCRF-CEM = system: CCRF-CEM
COLO 205 = system: COLO 205
DU-145 = system: DU-145
EKVX = system: EKVX
HCC 2998 = system: HCC 2998
HCT-116 = system: HCT-116
HCT-15 = system: HCT-15
HL-60 = system: HL-60
HOP-62 = system: HOP-62
HOP-92 = system: HOP-92
HT-29 = system: HT-29
Hs-578T = system: Hs-578T
IGROV-1 = system: IGROV-1
K562 = system: K562
KM12 = system: KM12
LOX IMVI = system: LOX IMVI
M14 = system: M14
MCF7 = system: MCF7
MDA-MB-231 = system: MDA-MB-231
MDA-MB-435 = system: MDA-MB-435
MDA-N = system: MDA-N
MOLT-4 = system: MOLT-4
Malme-3M = system: Malme-3M
NCI-H226 = system: NCI-H226
NCI-H23 = system: NCI-H23
NCI-H460 = system: NCI-H460
NCI-H522 = system: NCI-H522
NCI/ADR-RES = system: NCI/ADR-RES
OVCAR-3 = system: OVCAR-3
OVCAR-4 = system: OVCAR-4
OVCAR-5 = system: OVCAR-5
OVCAR-8 = system: OVCAR-8
PC-3 = system: PC-3
RPMI-8226 = system: RPMI-8226
SF-268 = system: SF-268
SF-295 = system: SF-295
SF-539 = system: SF-539
SK-MEL-28 = system: SK-MEL-28
SK-MEL-2 = system: SK-MEL-2
SK-MEL-5 = system: SK-MEL-5
SK-OV-3 = system: SK-OV-3
SN12C = system: SN12C
SNB-19 = system: SNB-19
SR = system: SR
SW-620 = system: SW-620
T47D = system: T47D
TK-10 = system: TK-10
U-251 = system: U-251
UACC-257 = system: UACC-257
UACC-62 = system: UACC-62
RXF 393 = system: RXF 393
SNB-75 = system: SNB-75
UO-31 = system: UO-31

Question: With `CCOC(=O)/C(C)=C\[C@@]1(C)O[C@@H](C)[C@@](C)(OC(C)=O)[C@@H]1OC(C)=O` as the molecule, how does the GI50 (786-0) read?
Answer: 63.5 µM (inactive)

Question: What about the GI50 (A498) of the same molecule?
Answer: 48 µM (inactive)

Question: What about the GI50 (A549) of the same molecule?
Answer: 45.4 µM (inactive)

Question: What about the GI50 (ACHN) of the same molecule?
Answer: 41 µM (inactive)

Question: And the GI50 (CAKI-1)?
Answer: 33 µM (inactive)

Question: What about the GI50 (CCRF-CEM) of the same molecule?
Answer: 33.5 µM (inactive)

Question: And the GI50 (COLO 205)?
Answer: 30 µM (inactive)

Question: And the GI50 (DU-145)?
Answer: 37.1 µM (inactive)

Question: What about the GI50 (EKVX) of the same molecule?
Answer: 36.1 µM (inactive)

Question: And the GI50 (HCC 2998)?
Answer: 30.2 µM (inactive)

Question: What about the GI50 (HCT-116) of the same molecule?
Answer: 40.9 µM (inactive)

Question: What about the GI50 (HCT-15) of the same molecule?
Answer: 17.1 µM

Question: And the GI50 (HL-60)?
Answer: 39.6 µM (inactive)

Question: And the GI50 (HOP-62)?
Answer: 70.6 µM (inactive)

Question: What about the GI50 (HOP-92) of the same molecule?
Answer: 25.6 µM (inactive)

Question: And the GI50 (HT-29)?
Answer: 40.6 µM (inactive)

Question: And the GI50 (Hs-578T)?
Answer: 27 µM (inactive)

Question: And the GI50 (IGROV-1)?
Answer: 37.7 µM (inactive)

Question: And the GI50 (K562)?
Answer: 38.6 µM (inactive)

Question: And the GI50 (KM12)?
Answer: 45.2 µM (inactive)

Question: And the GI50 (LOX IMVI)?
Answer: 71 µM (inactive)

Question: What about the GI50 (M14) of the same molecule?
Answer: 61.5 µM (inactive)

Question: And the GI50 (MCF7)?
Answer: 23 µM (inactive)

Question: What about the GI50 (MDA-MB-231) of the same molecule?
Answer: 57.5 µM (inactive)

Question: What about the GI50 (MDA-MB-435) of the same molecule?
Answer: 41.7 µM (inactive)

Question: What about the GI50 (MDA-N) of the same molecule?
Answer: 44.5 µM (inactive)

Question: What about the GI50 (MOLT-4) of the same molecule?
Answer: 30 µM (inactive)

Question: And the GI50 (Malme-3M)?
Answer: 57.3 µM (inactive)

Question: And the GI50 (NCI-H226)?
Answer: 39.9 µM (inactive)

Question: And the GI50 (NCI-H23)?
Answer: 21.5 µM (inactive)

Question: What about the GI50 (NCI-H460) of the same molecule?
Answer: 43 µM (inactive)

Question: What about the GI50 (NCI-H522) of the same molecule?
Answer: 25.2 µM (inactive)

Question: What about the GI50 (NCI/ADR-RES) of the same molecule?
Answer: 30.2 µM (inactive)

Question: And the GI50 (OVCAR-3)?
Answer: 33.4 µM (inactive)

Question: What about the GI50 (OVCAR-4) of the same molecule?
Answer: 33.4 µM (inactive)

Question: What about the GI50 (OVCAR-5) of the same molecule?
Answer: > 100 µM (inactive)

Question: And the GI50 (OVCAR-8)?
Answer: 67.5 µM (inactive)

Question: And the GI50 (PC-3)?
Answer: 36.6 µM (inactive)

Question: And the GI50 (RPMI-8226)?
Answer: 51.8 µM (inactive)

Question: What about the GI50 (SF-268) of the same molecule?
Answer: 39.3 µM (inactive)

Question: What about the GI50 (SF-295) of the same molecule?
Answer: 36.8 µM (inactive)

Question: What about the GI50 (SF-539) of the same molecule?
Answer: > 100 µM (inactive)

Question: And the GI50 (SK-MEL-28)?
Answer: > 100 µM (inactive)

Question: What about the GI50 (SK-MEL-2) of the same molecule?
Answer: 61.8 µM (inactive)

Question: What about the GI50 (SK-MEL-5) of the same molecule?
Answer: 33.8 µM (inactive)

Question: What about the GI50 (SK-OV-3) of the same molecule?
Answer: 75.7 µM (inactive)

Question: What about the GI50 (SN12C) of the same molecule?
Answer: 57.1 µM (inactive)

Question: What about the GI50 (SNB-19) of the same molecule?
Answer: > 100 µM (inactive)

Question: What about the GI50 (SR) of the same molecule?
Answer: 58.3 µM (inactive)

Question: And the GI50 (SW-620)?
Answer: 67.5 µM (inactive)

Question: And the GI50 (T47D)?
Answer: 19.9 µM (inactive)

Question: What about the GI50 (TK-10) of the same molecule?
Answer: 78.9 µM (inactive)

Question: And the GI50 (U-251)?
Answer: 64.1 µM (inactive)

Question: And the GI50 (UACC-257)?
Answer: 28.2 µM (inactive)

Question: What about the GI50 (UACC-62) of the same molecule?
Answer: 49.9 µM (inactive)

Question: What does the source list for `COc1cc(C/N=c2/nc(N(C)C)ss2)cc(OC)c1OC`?
Answer: GI50 (786-0): 3.24 µM (inactive); GI50 (A498): > 10 µM (inactive); GI50 (A549): > 10 µM (inactive); GI50 (ACHN): > 10 µM (inactive); GI50 (CAKI-1): > 10 µM (inactive); GI50 (CCRF-CEM): 0.189 µM (active); GI50 (COLO 205): > 10 µM (inactive); GI50 (DU-145): > 10 µM (inactive); GI50 (EKVX): > 10 µM (inactive); GI50 (HCC 2998): > 10 µM (inactive); GI50 (HCT-116): 8.85 µM (inactive); GI50 (HCT-15): > 10 µM; GI50 (HL-60): 1.8 µM (inactive); GI50 (HOP-62): > 10 µM (inactive); GI50 (HOP-92): > 10 µM (inactive); GI50 (HT-29): > 10 µM (inactive); GI50 (Hs-578T): > 10 µM (inactive); GI50 (IGROV-1): > 10 µM (inactive); GI50 (K562): 1.46 µM (inactive); GI50 (KM12): > 7.59 µM (inactive); GI50 (LOX IMVI): 2.1 µM (inactive); GI50 (M14): > 9.1 µM (inactive); GI50 (MCF7): > 5.78 µM (inactive); GI50 (MDA-MB-231): > 10 µM (inactive); GI50 (MDA-MB-435): > 10 µM (inactive); GI50 (MDA-N): > 10 µM (inactive); GI50 (MOLT-4): 2.81 µM (inactive); GI50 (Malme-3M): > 5.15 µM (inactive); GI50 (NCI-H226): > 10 µM (inactive); GI50 (NCI-H23): > 10 µM (inactive); GI50 (NCI-H460): > 10 µM (inactive); GI50 (NCI-H522): > 10 µM (inactive); GI50 (NCI/ADR-RES): > 10 µM (inactive); GI50 (OVCAR-3): > 10 µM (inactive); GI50 (OVCAR-4): > 9.27 µM (inactive); GI50 (OVCAR-5): 3.37 µM (inactive); GI50 (OVCAR-8): > 4.99 µM (inactive); GI50 (PC-3): > 10 µM (inactive); GI50 (RPMI-8226): 2.48 µM (inactive); GI50 (RXF 393): > 10 µM (inactive); GI50 (SF-268): > 10 µM (inactive); GI50 (SF-295): > 10 µM (inactive); GI50 (SF-539): > 10 µM (inactive); GI50 (SK-MEL-28): > 7.31 µM (inactive); GI50 (SK-MEL-5): > 10 µM (inactive); GI50 (SK-OV-3): > 10 µM (inactive); GI50 (SN12C): > 10 µM (inactive); GI50 (SNB-19): > 10 µM (inactive); GI50 (SNB-75): > 10 µM (inactive); GI50 (SR): 0.358 µM (active); GI50 (SW-620): 5.6 µM (inactive); GI50 (T47D): > 10 µM (inactive); GI50 (TK-10): > 10 µM (inactive); GI50 (U-251): > 10 µM (inactive); GI50 (UACC-257): > 10 µM (inactive); GI50 (UACC-62): > 10 µM (inactive); GI50 (UO-31): > 10 µM (inactive)

Source: ChEMBL document CHEMBL1201862, “PubChem BioAssay data set” (2004)
